One series relates to HEPG2. The experiment in a line: HEPG2 IC50. The format is cell-based. As to conditions: Homo sapiens.
The next series has as its target T1, SCD (Mus musculus, UniProt P13516).
T1 sequence (P13516 1-355): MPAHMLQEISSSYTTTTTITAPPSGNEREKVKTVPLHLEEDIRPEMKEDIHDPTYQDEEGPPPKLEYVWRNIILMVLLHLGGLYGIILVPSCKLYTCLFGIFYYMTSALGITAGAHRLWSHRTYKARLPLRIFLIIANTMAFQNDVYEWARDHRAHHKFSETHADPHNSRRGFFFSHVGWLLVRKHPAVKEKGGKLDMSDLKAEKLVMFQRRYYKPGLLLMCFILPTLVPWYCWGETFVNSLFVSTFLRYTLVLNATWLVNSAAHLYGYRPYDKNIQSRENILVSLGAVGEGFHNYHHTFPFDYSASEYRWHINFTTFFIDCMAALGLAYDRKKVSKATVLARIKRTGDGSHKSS
The experiment in a line: Mouse SCD IC50 determination for compounds active in the HTS assay. Format: biochemical.

Series [1] concerns the target T2, stearoyl-CoA desaturase (SCD) (Mus musculus, UniProt P13516).
T2 construct: Reactions are started by adding 2 mg of microsomal protein; from tissue; host or cells: liver microsomes of male ICR mice on a high-carbohydrate, low fat diet
T2 sequence (P13516 1-355): T1 sequence (P13516 1-355)
The series is described as follows: HTS microsomal assay of stearoyl-CoA desaturase inhibition using mouse liver microsomes. As to conditions: % SCD enzyme activity remaining at 10 μM test compound. Format: biochemical. As for the experimental part: The absence of mitochondrial contamination is enzymatically assessed.
The compounds are analyzed with an HTS microsomal assay.
(In general: Microsomes from liver hold many membrane-bound enzymes, among them those of drug oxidation.)

As a reminder, the melting point is the temperature, or range, at which the solid turns liquid. Broadly, the IC50 is the point on the concentration scale where inhibition reaches its midpoint.

As for `O=C(NCCC1CC1)c1ccc(N2CCN(Cc3ccccc3C(F)(F)F)CC2)nn1` [6-[4-(2-TRIFLUOROMETHYLBENZYL)PIPERAZIN-1-YL]PYRIDAZINE-3-CARBOXYLIC ACID (2-CYCLOPROPYLETHYL)AMIDE], the melting point lay in the range of 106 to 108 °C. The same molecule displayed a concentration for half-maximal inhibition (IC50) in the series with HEPG2 of 0.04 µM. This molecule had a half-maximal inhibitory concentration (IC50) against SCD of 0.09 µM. Further, the “Mouse microsome SCD activity % remaining @ 10 μM” value in series [1] is recorded as 12%.
On the same counts, the results for `O=C(NCCc1ccc(F)cc1F)c1ccc(N2CCN(C(=O)c3ccccc3C(F)(F)F)CC2)nn1` [6-[4-(2-TRIFLUOROMETHYLBENZOYL)PIPERAZIN-1-YL]PYRIDAZINE-3-CARBOXYLIC ACID [2-(2,4-DIFLUOROPHENYL)ETHYL]AMIDE] are 179 to 181 °C, 0.02 µM, 0.02 µM and 5%.
In turn, `CC(O)(C(=O)N1CCN(c2ccc(C(=O)NCCC3CC3)nn2)CC1)C(F)(F)F` (centres unmarked) [Example 14.8, 6-[4-(3,3,3-TRIFLUORO-2-HYDROXY-2-METHYLPROPIONYL)PIPERAZIN-1-YL]PYRIDAZINE-3-CARBOXYLIC ACID (2-CYCLOPROPYLETHYL)AMIDE] displayed a melting point of 181 to 183 °C.
Molecule `CC(C)(C)C(O)CNC(=O)c1ccc(N2CCN(C(=O)c3ccccc3C(F)(F)F)CC2)nn1` (centres unmarked) [Example 15.29, 6-[4-(2-TRIFLUOROMETHYLBENZOYL)PIPERAZIN-1-YL]PYRIDAZINE-3-CARBOXYLIC ACID (2-HYDROXY-3,3-DIMETHYLBUTYL)AMIDE] gave a melting point of 236 to 240 °C.
The same measure, in the same setting: next, `CC(C)CCNC(=O)c1ccc(N2CCN(C(=O)c3cc(Cl)ccc3C(F)(F)F)CC2)nn1` [Example 3.7, 6-[4-(5-CHLORO-2-TRIFLUOROMETHYLBENZOYL)PIPERAZIN-1-YL]PYRIDAZINE-3-CARBOXYLIC ACID (3-METHYLBUTYL)AMIDE]: 148 to 151 °C; `O=C(NCCc1ccccn1)c1ccc(N2CCN(C(=O)c3ccccc3C(F)(F)F)CC2)nn1` [Example 28.2, 6-[4-(2-TRIFLUOROMETHYLBENZOYL)PIPERAZIN-1-YL]PYRIDAZINE-3-CARBOXYLIC ACID (2-PYRIDIN-2-YLETHYL)AMIDE]: 151 to 154 °C.
In the case of `O=C(NCC(O)c1cccc(F)c1)c1ccc(N2CCN(C(=O)c3ccccc3C(F)(F)F)CC2)nn1` (centres unmarked) [Example 27.4, 6-[4-(2-TRIFLUOROMETHYLBENZOYL)PIPERAZIN-1-YL]PYRIDAZINE-3-CARBOXYLIC ACID [2-(3-FLUOROPHENYL)-2-HYDROXYETHYL]AMIDE], the melting point lay within 117 to 119 °C.
Turning to `O=C(NCCC1CC1)Nc1ccc(N2CCN(C(=O)c3ccccc3C(F)(F)F)CC2)nn1`, the melting point was more than 300 °C.
On the same count and under the same terms, with `O=C(NCc1ccccn1)c1ccc(N2CCN(C(=O)c3ccccc3C(F)(F)F)CC2)nn1` [Example 30, 6-[4-(2-TRIFLUOROMETHYLBENZOYL)PIPERAZIN-1-YL]PYRIDAZINE-3-CARBOXYLIC ACID (PYRIDIN-2-YL-METHYL)AMIDE] the figure was 179 to 181 °C; with `O=C(NCCC1CC1)c1ccc(N2CCN(C(=S)c3ccccc3C(F)(F)F)CC2)nn1` [Example 31, 6-[4-(2-TRIFLUOROMETHYLTHIOBENZOYL)PIPERAZIN-1-YL]-PYRIDAZINE-3-CARBOXYLIC ACID (2-CYCLOPROPYLETHYL)AMIDE], 117 to 120 °C; with `CC(C)CCCNC(=O)c1ccc(N2CCN(C(=O)c3ccccc3C(F)(F)F)CC2)nn1` [Example 15.33, 6-[4-(2-TRIFLUOROMETHYLBENZOYL)PIPERAZIN-1-YL]PYRIDAZINE-3-CARBOXYLIC ACID (4-METHYLPENTYL)AMIDE], 43 to 45 °C.

The values above are taken from patent US20110021530A1, “PYRIDAZINE DERIVATIVES AND THEIR USE AS THERAPEUTIC AGENTS IN THE TREATMENT OF SKIN DISORDERS” (XENON PHARMACEUTICALS INC., priority 2008, published 2011).
